Test [1] relates to thromboxane synthetase. Briefly: inhibition of thromboxane production (TxB2 radio-immunoassay, rabbit platelet rich plasma). It counts as cell-based. The settings on record: Oryctolagus cuniculus, rabbit PRP, adenosine diphosphate and adrenalin, read-out: IC50 (50% inhibition of TxB2). Here is the method: The compounds of formula I were tested for their ability to inhibit thromboxane production by the following standard test:
a) Generation of thromboxanes
Blood (approx. 75 ml) is obtained from an anaesthetised rabbit and centrifuged at 200 g for 10 minutes to obtain platelet rich plasma (PRP). An aliquot of PRP is incubated for 10 minutes at 37° C. in the presence of vehicle or drug. Platelet aggregation is induced by the addition of adenosine diphosphate and adrenalin. The tubes are incubated for 3 minutes, centrifuged at 10,000 for 3 minutes and a […] aliquot of the supernatant taken for radio-immunoassay of thromboxane B2 (TxB2).
b) Radio-immunoassay of TxB2
The total incubation volume is 150μ containing 50μl of ^3 H - TxB2 (0.005 μCi), […] of sample or authentic TxB2 ranging from 5 to 300 pg per tube as standards and 50 μl of rabbit anti-sera to TxB2 (in a concentration which will bind 50% of H-TxB2) After incubation for 1 hour at room temperature the tubes are further incubated for 16-20 hours at 4° C. 1 ml of dextran-coated charcoal is then added to the tubes which are further incubated on ice for 10 minutes. Following the incubation the samples are centrifuged at 10,000 g for 10 minutes and […] of the supernatant added to 5 ml of scintillation cocktail. Measurement of the radioactivity in the supernatant quantifies the amount of [^3 H]-TxB2 bound by the antibody. The concentration of unlabelled TxB2 in the sample is then determined from a linear standard curve.
IC50 values represent the concentrations of drug which achieve 50% inhibition of TxB2.

The subject of test [2] is spontaneously hypertensive rats. Briefly: antihypertensive activity in spontaneously hypertensive rats (tail cuff systolic pressure). It counts as in vivo, rat. Here is the method:
The compounds of formula I were tested for antihypertensive activity by the following standard procedure:
The blood pressures of male or female spontaneously hypertensive rats are measured in a 37° C constant temperature housing by means of a tail cuff. Rats with systolic pressures below 155 mmHg are discarded. Groups of rats are dosed orally with the test substance in a suitable vehicle or with vehicle alone. Systolic pressures are recorded before dosing and at selected time points afterwards. Heart rates are derived from caudal artery pulses. Results are analysed statistically by means of 2 way analysis of variance (within group).

For test [3], the system named is blood platelet aggregation. Briefly: inhibition of blood platelet aggregation (arachidonic acid induced, rabbit platelet rich plasma). The class given is cell-based, rabbit (New Zealand White). The settings on record: IC50 dazoxiben / IC50 test; 250 μM arachidonic acid, rabbit PRP. Here is the method: Compounds of formula I were tested for their ability to inhibit blood platelet aggregation by a modification of the procedure of Fantl, Australian J.Exp.Biol- Med.Sci. 45, 355-62 1967.
Since platelet aggregation is the initial step in thrombus formation it -is considered that compounds which prevent aggregation or reduce platelet adhesiveness may inhibit the initiation of the atherosclerotic process. The effect of drugs on adhesiveness is measured in platelet-rich plasma containing a small amount of arachidonic acid which markedly increases aggregation in vitro and may be a physiological agent for doing so in vivo. The actual test procedure used in described below.
New Zealand White rabbits (2.5-3kg) are anaesthetised with an injection, via the marginal ear vein, of […]. The carotid artery is cannulated and blood (100-150 ml) is withdrawn into 50 ml syringes containing 3.8% sodium citrate (Ratio blood: citrate =9:1).
Blood is centrifuged at 200 g (1500 r.p.m.) for 10 minutes at 5° C. and the platelet rich plasma (PRP) removed. The platelets are then kept at room temperature in a screw topped plastic centrifuge tube for the duration of the experiment.
A twin channel platelet aggregometer--(HU aggregometer, A. Browne Ltd, Leicester, UK) is used. 1.0 ml aliquots of PRP are prewarmed for 5-10 minutes and stirred continuously at 1100 rpm. Aggregation is induced by addition of 250μM arachidonic acid, (8μl volume) to the PRP samples. The aggregometer output is set at maximum and the chart recorder sensitivity is altered to give a full scale deflection to this arachidonic acid response.
Control responses are recorded as the maximum deflection obtained after addition of 250μM arachidonic acid.
PRP samples are preincubated for 1 minute with the test compounds followed by arachidonic acid addition. The maximum deflection after the addition of arachidonic acid is then recorded. All drugs are screened initially at 10^-4 M (final concentration), i.e. 10μl of a 1×10^-2 M stock solution of the drug dissolved in distilled water is added to the PRP.
Dazoxiben, a thromboxane synthetase inhibitor (Randall, M. J. et al Research 23 145-162, 1981)is used as a positive control and all test components are compared with Dazoxiben. The activity of the test compound is expressed as the ratio IC50 Dazaxiben/IC50 Test where IC50 is the dose required to inhibit the A.A. induced aggregation by 50%.

In test [4] the test system is isolated rat portal vein. Briefly: calcium antagonist activity: response of isolated rat portal vein to increasing calcium ion concentration in vitro. The settings on record: read-out: molar concentration required to reduce the response by 50%. From the text:
In this-test a-molar concentration of 2×10^-7 M of 1,4-dihydro-2-(imidazol- 1-ylmethyl)-6-methyl 4-(3-nitrophenyl)pyridine-3, 5-dicarboxylic acid 3-ethyl 5-methyl ester was required to reduce the response by 50%.

The test system of test [5] is human platelet PLA2. Briefly: Phospholipase A2 (PLA2) inhibition, hydrolysis of E.coli membrane phospholipids by human platelet PLA2. It counts as biochemical. The conditions noted are these: 100 μM. Here is the method:
Of particular interest for this activity are compounds of formula I wherein Ar represents an aryl radical having a 2-nitro substituent. […] PLA2 activity was assayed by a procedure based on Franson, R.C., Chapter 12. Intracellular Metabolism of Ingested Phospholipids. Liposomes: from Physical Structure to Therapeutic Applications. North-Holland Biomedical Press, 1981, pp 349-380 and involving measuring the hydrolysis of E.coli membrane phospholipids and the release of free [1-^14 ]oleic acid from the C-2 position of phospholipids by human platelet PLA2.

On to `CCOC(=O)C1=C(Cn2ccnc2)NC(C)=C(C(=O)OC)C1c1cccc([N+](=O)[O-])c1` (stereo not drawn) [Example 1, 1,4-Dihydro-2-(imidazol-1-ylmethyl)-6-methyl-4-(3-nitro-phenyl)pyridine-3,5-dicarboxylic acid 3-ethyl 5-methyl diester], for which the IC50 is 5 µM in test [1] and 0.2 µM in test [4]. The “BLOOD PRESSURE as % of pre-dose level” value in test [2] (0.003 mmol/kg po, 6 hrs) is on record as 70%; in test [2] (0.003 mmol/kg po, 24 hrs) it was 83%; in test [2] (0.003 mmol/kg po, t = 2 hrs), 65%; in test [2] (0.03 mmol/kg po, 6 hrs), 62%; in test [2] (0.03 mmol/kg po, 24 hrs) it was 105%; in test [2] (0.03 mmol/kg po, t = 2 hrs), 48%. In addition, the “BLOOD PRESSURE as % of pre-dose level” value is 46% in test [2] (0.15 mmol/kg po, 6 hrs); 85% in test [2] (0.15 mmol/kg po, 24 hrs); 42% in test [2] (0.15 mmol/kg po, t = 2 hrs). In addition, the “Inhibition of blood platelet aggregation potency ratio (dazoxiben = 1)” value in test [3] is given as 1.2.

As to `CCOC(=O)C1=C(C)NC(CCn2ccnc2)=C(C(=O)OCC)C1c1ccccc1[N+](=O)[O-]` (stereo not drawn) [Example 2, 1,4-Dihydro-2-[2-(imidazol-1-yl)-ethyl]-6-methyl-4-(2-nitrophenyl)pyridine-3,5-dicarboxylic acid diethyl ester], the IC50 in test [1] was found to be 2.3 µM. Besides, the “BLOOD PRESSURE as % of pre-dose level” value in test [2] (0.03 mmol/kg po, 6 hrs) was 99%; in test [2] (0.03 mmol/kg po, 24 hrs), 105%; in test [2] (0.03 mmol/kg po, t = 2 hrs) it was 63%; in test [2] (0.15 mmol/kg po, 6 hrs), 42%; in test [2] (0.15 mmol/kg po, 24 hrs) it was 74%; in test [2] (0.15 mmol/kg po, t = 2 hrs), 35%. Further, in test [5], the “inhibition of PLA2 activity” value is 77%. For the same molecule, in test [3], the “Inhibition of blood platelet aggregation potency ratio (dazoxiben = 1)” value is on record as 0.79.

In the case of `COC(=O)C1=C(C)NC(CCn2ccnc2)=C(C(=O)OC)C1c1ccccc1[N+](=O)[O-]` (stereo not drawn) [Example 3, 1,4-Dihydro-2-[2-(1-imidazolyl)ethyl]-6-methyl-4-(2-nitrophenyl)pyridine-3,5-dicarboxylic acid dimethyl ester], in test [3], the “Inhibition of blood platelet aggregation potency ratio (dazoxiben = 1)” value was found to be 1.64.

Take `CCOC(=O)C1=C(COc2cccnc2)NC(C)=C(C(=O)OC)C1c1cccc([N+](=O)[O-])c1` (stereo not drawn) [Example 4, 1,4-Dihydro-2methyl-4-(3-nitrophenyl)-6-[(3-pyridyloxy)methyl]pyridine-3,5-dicarboxylic acid 5-ethyl-3-methyl diester]: the “Inhibition of blood platelet aggregation potency ratio (dazoxiben = 1)” value in test [3] turned out to be 1.1.

`COC(=O)C1=C(C)NC(CCn2cnc3ccccc32)=C(C(=O)OC)C1c1cccc(Cl)c1Cl` (stereo not drawn) [Example 5, 2-[2-(1-Benzimidazolyl)ethyl]-4-[2,3-dichlorophenyl]-1,4-dihydro-6-methylpyridine-3,5-dicarboxylic acid dimethylester]: the IC50 in test [1] came to 12.3 µM.

Source of the values: patent US5068337A, “1,4-dihydropyridines and their ability to inhibit blood platelet aggregation, inhibit thromboxane synthetase and phospholipase” (John Wyeth & Brother Limited, priority 1984, dated 1991).
